The values that follow come from patent US6989252B2, “Hydrogen production using hydrogenase-containing oxygenic photosynthetic organisms” (Midwest Research Institute, priority 1999, dated 2006).

The subject of this test is H2-producing C. reinhardtii cultures. Briefly: H2 gas collection from H2-producing sulfur-deprived cultures after inhibitor addition. It is filed as cell-based, Chlamydomonas reinhardtii. The note with it: inhibitor added to H2-producing sulfur-depleted cultures. The source says: Culture bottles (Schott or Roux type) were fitted with an #25 Ace thread and smaller side-ports for liquid sampling. A threaded glass stopper with capillaries for gas sampling was fitted with a Viton O-ring and used to seal the reactor. Threaded side-arm and gas sampling ports were sealed with rubber laminated Teflon septa. Teflon tubing (Aminco, HPLC), attached to one of the gas ports, was used to conduct gas evolved by the algae in the culture bottles to an upside-down graduated cylinder filled with H2O. The gas collection tubing was detached from the culture bottle during liquid and gas sampling to avoid disturbance of gas volume readings in the graduated cylinder.
We, thus, conclude that most of the reductants for H2 production are generated by residual water oxidation activity in sulfur-depleted C. reinhardtii cultures, but that an endogenous substrate may also contribute electrons for the process.

Structures are written as SMILES.

As to `CN(C)C(=O)Nc1ccc(Cl)c(Cl)c1` [DCMU], for the setting “% of initial value”, the “rate of H2 gas collection relative to its initial value” is “about 20%”.
On to `CC1=C(Br)C(=O)C(C(C)C)=C(Br)C1=O` [DBMIB], for which the “inhibition of H2 gas collection” value is on record as “Total inhibition”.
